Results as given in ChEMBL document CHEMBL1138704, “Farnesyl protein transferase inhibitors targeting the catalytic zinc for enhanced binding” (Bioorg Med Chem Lett, 2004).
“And” between values parts separate entries of the source, which are not always exact repeats. Identical values can stand only once.

Experiments:
[1] = target: T1, Protein farnesyltransferase (Homo sapiens) (UniProt P49354+P49356); assay: Percent inhibition of [3H]FPP incorporation into H-ras CVLS by farnesyltransferase at 0.4 uM; format: protein-complex assay
[2] = target: T1, Protein farnesyltransferase (Homo sapiens); assay: Percent inhibition of [3H]FPP incorporation into H-ras CVLS by farnesyltransferase at 1.1 uM; format: protein-complex assay
[3] = Inhibition of [3H]-FPP incorporation into H-ras CVLS by farnesyltransferase
[4] = target: T1, Protein farnesyltransferase (Homo sapiens); assay: Inhibition of [3H]FPP incorporation into H-ras CVLS by farnesyltransferase; format: protein-complex assay

## O=C(NCc1cccnc1)[C@H]1CCCCN1C1c2ccc(Cl)cc2CCc2cc(Br)cnc21 (stereo partly specified)
[1]
  inhibition: 0.4% and 11%

## O=C(NCc1ccncc1)[C@@H]1CCCCN1C1c2ccc(Cl)cc2CCc2cc(Br)cnc21 (stereo partly specified)
[2]
  inhibition: 0% and 13%

## NC(=O)N1CCC(CC(=O)N2CCC([C@H]3c4ncc(Br)cc4CCc4cc(Cl)cc(Br)c43)CC2)CC1 [LONAFARNIB]
[3]
  IC50: 2 nM

## O=C(NCc1cccnc1)[C@@H]1CCCCN1C1c2ccc(Cl)cc2CCc2cc(Br)cnc21 (stereo partly specified)
[4]
  Inhibitory activity: 0.3 µM and 0.16 µM

## O=C(NCCCn1ccnc1)[C@@H]1CCCCN1C1c2ncc(Br)cc2CCc2cc(Cl)cc(Br)c21 (stereo partly specified)
[3]
  IC50: 0.9 nM and 0.4 nM

## O=C(NCc1ccncc1)[C@H]1CCCCN1C1c2ccc(Cl)cc2CCc2cc(Br)cnc21 (stereo partly specified)
[2]
  inhibition: 18% and 27%
